Where a SMILES comes first, the peptide text is derived from it. [ ]: non-standard residue; d: D form. Aib = CC(C)(N)C(=O)O
Experiments:
[1] = molecular target: human GLP-1R (Homo sapiens, UniProt P43220); assay: Peptide-receptor mediated cAMP accumulation (LANCE Ultra cAMP) in CHO-K1 cells transfected with human GLP-1R; assay type: cell-based; settings: hGLP1 pEC50 (cAMP mean (n = 3): 11 point curve starting at 1 nM, Table 3)
[2] = molecular target: human GCGR (Homo sapiens, UniProt P47871); assay: Peptide-receptor mediated cAMP accumulation (LANCE Ultra cAMP) in CHO-K1 cells transfected with human GCGR; assay type: cell-based; settings: Table 3
human GCGR, sequence (P47871 26-477): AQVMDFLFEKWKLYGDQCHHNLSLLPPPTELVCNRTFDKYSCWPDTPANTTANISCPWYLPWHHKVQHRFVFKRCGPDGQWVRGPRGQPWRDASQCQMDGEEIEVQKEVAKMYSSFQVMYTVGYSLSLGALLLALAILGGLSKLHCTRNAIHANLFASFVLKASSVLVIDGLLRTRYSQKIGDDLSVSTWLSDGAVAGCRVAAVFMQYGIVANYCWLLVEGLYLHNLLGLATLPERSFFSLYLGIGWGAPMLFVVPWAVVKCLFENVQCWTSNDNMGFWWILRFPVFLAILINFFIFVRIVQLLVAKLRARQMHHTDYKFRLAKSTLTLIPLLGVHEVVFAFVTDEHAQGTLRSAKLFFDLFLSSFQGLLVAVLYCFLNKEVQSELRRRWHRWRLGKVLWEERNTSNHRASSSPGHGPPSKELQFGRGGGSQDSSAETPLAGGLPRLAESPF

human GLP-1R, sequence (P43220 24-463): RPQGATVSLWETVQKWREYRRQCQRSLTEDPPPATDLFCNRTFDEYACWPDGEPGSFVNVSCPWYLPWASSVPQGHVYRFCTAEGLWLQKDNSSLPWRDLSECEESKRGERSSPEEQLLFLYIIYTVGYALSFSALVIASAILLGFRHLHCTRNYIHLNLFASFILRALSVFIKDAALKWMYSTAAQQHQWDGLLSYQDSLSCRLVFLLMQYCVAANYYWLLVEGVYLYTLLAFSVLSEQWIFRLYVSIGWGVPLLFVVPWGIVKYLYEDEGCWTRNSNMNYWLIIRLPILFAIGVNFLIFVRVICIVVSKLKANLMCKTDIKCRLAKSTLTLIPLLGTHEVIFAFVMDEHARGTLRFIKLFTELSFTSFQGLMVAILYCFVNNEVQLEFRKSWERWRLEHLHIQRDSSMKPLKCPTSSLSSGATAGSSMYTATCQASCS

Row | Structure (SMILES) | EC50 [1] [pM] | EC50 [2] [pM]
1 | CC(C)C[C@H](NC(=O)[C@H](Cc1ccc(O)cc1)NC(=O)[C@H](CCCCN)NC(=O)[C@H](CO)NC(=O)[C@H](Cc1ccc(O)cc1)NC(=O)[C@H](CC(=O)O)NC(=O)[C@H](CO)NC(=O)[C@@H](NC(=O)[C@H](Cc1ccccc1)NC(=O)[C@@H](NC(=O)CNC(=O)[C@H](Cc1c[nH]cn1)NC(=O)[C@H](CO)NC(=O)[C@@H](N)Cc1ccc(O)cc1)[C@@H](C)O)[C@@H](C)O)C(=O)N[C@@H](CC(=O)O)C(=O)NC(C)(C)C(=O)N[C@@H](CCCCN)C(=O)N[C@@H](CCCNC(=N)N)C(=O)N[C@@H](C)C(=O)N[C@@H](CCC(N)=O)C(=O)N[C@@H](CCC(=O)O)C(=O)N[C@@H](Cc1ccccc1)C(=O)N[C@H](C(=O)NC(C)(C)C(=O)N[C@@H](Cc1c[nH]c2ccccc12)C(=O)N[C@@H](CC(C)C)C(=O)N[C@@H](CCC(=O)O)C(=O)N[C@@H](CC(=O)O)C(=O)N[C@@H](CCC(=O)O)C(=O)N[C@@H](CCCCN)C(=O)N[C@@H](CCCNC(=N)N)C(=O)N[C@@H](CC(N)=O)C(=O)N[C@@H](CCCCN)C(=O)N1CCC[C@H]1C(=O)N1CCC[C@H]1C(=O)N1CCC[C@H]1C(=O)N[C@@H](C)C(=O)O)C(C)C [Compound A45] (H-YSHGTFTSDYSKYLD[Aib]KRAQEFV[Aib]WLEDEKRNKPPPA-OH; N-terminus assumed) | > 1000 | 2
2 | CC(C)C[C@H](NC(=O)[C@H](Cc1c[nH]c2ccccc12)NC(=O)[C@H](CC(C)C)NC(=O)[C@@H](NC(=O)[C@H](Cc1ccccc1)NC(=O)[C@H](CCC(=O)O)NC(=O)[C@H](CCC(N)=O)NC(=O)[C@H](C)NC(=O)[C@H](CCCNC(=N)N)NC(=O)[C@H](CCCCN)NC(=O)C(C)(C)NC(=O)[C@H](CC(=O)O)NC(=O)[C@H](CC(C)C)NC(=O)[C@H](Cc1ccc(O)cc1)NC(=O)[C@H](CCCCN)NC(=O)[C@H](CO)NC(=O)[C@H](Cc1ccc(O)cc1)NC(=O)[C@H](CC(=O)O)NC(=O)[C@H](CO)NC(=O)[C@@H](NC(=O)[C@H](Cc1ccccc1)NC(=O)[C@@H](NC(=O)CNC(=O)[C@H](Cc1c[nH]cn1)NC(=O)[C@H](CO)NC(=O)[C@@H](N)Cc1ccc(O)cc1)[C@@H](C)O)[C@@H](C)O)C(C)C)C(=O)N[C@@H](CCC(=O)O)C(=O)N[C@@H](CC(=O)O)C(=O)N[C@@H](CCC(=O)O)C(=O)N1CCC[C@H]1C(=O)N[C@@H](CO)C(=O)N[C@@H](CO)C(=O)NCC(=O)N[C@@H](C)C(=O)N1CCC[C@H]1C(=O)N1CCC[C@H]1C(=O)N1CCC[C@H]1C(=O)N[C@@H](CO)C(=O)O [Compound A53] (H-YSHGTFTSDYSKYLD[Aib]KRAQEFVLWLEDEPSSGAPPPS-OH; N-terminus assumed) | > 1000 | 2.51
3 | CC(C)C[C@H](NC(=O)[C@H](Cc1ccc(O)cc1)NC(=O)[C@H](CCCCN)NC(=O)[C@H](CO)NC(=O)[C@H](Cc1ccc(O)cc1)NC(=O)[C@H](CC(=O)O)NC(=O)[C@H](CO)NC(=O)[C@@H](NC(=O)[C@H](Cc1ccccc1)NC(=O)[C@@H](NC(=O)CNC(=O)[C@H](Cc1c[nH]cn1)NC(=O)[C@@H](NC(=O)[C@@H](N)Cc1ccc(O)cc1)[C@@H](C)O)[C@@H](C)O)[C@@H](C)O)C(=O)N[C@@H](CC(=O)O)C(=O)NC(C)(C)C(=O)N[C@@H](CCCCN)C(=O)N[C@@H](CCCNC(=N)N)C(=O)N[C@@H](C)C(=O)N[C@@H](CCC(N)=O)C(=O)N[C@@H](CCC(=O)O)C(=O)N[C@@H](Cc1ccccc1)C(=O)N[C@H](C(=O)NC(C)(C)C(=O)N[C@@H](Cc1c[nH]c2ccccc12)C(=O)N[C@@H](CC(C)C)C(=O)N[C@@H](CCC(=O)O)C(=O)N[C@@H](CC(=O)O)C(=O)N[C@@H](CCC(=O)O)C(=O)N1CCC[C@H]1C(=O)N[C@@H](CO)C(=O)N[C@@H](CO)C(=O)NCC(=O)N[C@@H](C)C(=O)N1CCC[C@H]1C(=O)N1CCC[C@H]1C(=O)N1CCC[C@H]1C(=O)N[C@@H](CO)C(=O)O)C(C)C [Compound A62] (H-YTHGTFTSDYSKYLD[Aib]KRAQEFV[Aib]WLEDEPSSGAPPPS-OH; N-terminus assumed) | > 1000 | 3.16

Other lines, results leading:

Row | EC50 [1] [pM] | EC50 [2] [pM] | Structure (SMILES)
4 | > 1000 | 3.16 | CC(C)C[C@H](NC(=O)[C@H](Cc1ccc(O)cc1)NC(=O)[C@H](CCCCN)NC(=O)[C@H](CO)NC(=O)[C@H](Cc1ccc(O)cc1)NC(=O)[C@H](CC(=O)O)NC(=O)[C@H](CO)NC(=O)[C@@H](NC(=O)[C@H](Cc1ccccc1)NC(=O)[C@@H](NC(=O)CNC(=O)[C@H](Cc1c[nH]cn1)NC(=O)[C@H](CO)NC(=O)[C@@H](N)Cc1ccc(O)cc1)[C@@H](C)O)[C@@H](C)O)C(=O)N[C@@H](CC(=O)O)C(=O)NC(C)(C)C(=O)N[C@@H](CCCCN)C(=O)N[C@@H](CCCNC(=N)N)C(=O)N[C@@H](C)C(=O)N[C@@H](CCC(N)=O)C(=O)N[C@@H](CCC(=O)O)C(=O)N[C@@H](Cc1ccccc1)C(=O)N[C@H](C(=O)NC(C)(C)C(=O)N[C@@H](Cc1c[nH]c2ccccc12)C(=O)N[C@@H](CC(C)C)C(=O)N[C@@H](CCC(=O)O)C(=O)N[C@@H](CC(=O)O)C(=O)N[C@@H](CCC(=O)O)C(=O)N[C@@H](CCCCN)C(=O)N[C@@H](CCCNC(=N)N)C(=O)N[C@@H](CC(N)=O)C(=O)N[C@@H](CCCCN)C(=O)N[C@@H](CC(N)=O)C(=O)N1CCC[C@H]1C(=O)N1CCC[C@H]1C(=O)N[C@@H](CO)C(=O)O)C(C)C [Compound A47] (H-YSHGTFTSDYSKYLD[Aib]KRAQEFV[Aib]WLEDEKRNKNPPS-OH; N-terminus assumed)
5 | > 1000 | 3.16 | CC(C)C[C@H](NC(=O)[C@H](Cc1ccc(O)cc1)NC(=O)[C@H](CCCCN)NC(=O)[C@H](CO)NC(=O)[C@H](Cc1ccc(O)cc1)NC(=O)[C@H](CC(=O)O)NC(=O)[C@H](CO)NC(=O)[C@@H](NC(=O)[C@H](Cc1ccccc1)NC(=O)[C@@H](NC(=O)CNC(=O)[C@H](Cc1c[nH]cn1)NC(=O)[C@H](CO)NC(=O)[C@@H](N)Cc1ccc(O)cc1)[C@@H](C)O)[C@@H](C)O)C(=O)N[C@@H](CC(=O)O)C(=O)NC(C)(C)C(=O)N[C@@H](CCCCN)C(=O)N[C@@H](CCCNC(=N)N)C(=O)N[C@@H](C)C(=O)N[C@@H](CCC(N)=O)C(=O)N[C@@H](CCC(=O)O)C(=O)N[C@@H](Cc1ccccc1)C(=O)N[C@H](C(=O)NC(C)(C)C(=O)N[C@@H](Cc1c[nH]c2ccccc12)C(=O)N[C@@H](CC(C)C)C(=O)N[C@@H](CCC(=O)O)C(=O)N[C@@H](CC(=O)O)C(=O)N[C@@H](CCC(=O)O)C(=O)N[C@@H](CCCCN)C(=O)N[C@@H](CCCNC(=N)N)C(=O)N[C@@H](CC(N)=O)C(=O)N[C@@H](CCCCN)C(=O)N1CCC[C@H]1C(=O)N1CCC[C@H]1C(=O)N1CCC[C@H]1C(=O)N[C@@H](CO)C(=O)O)C(C)C [Compound A50] (H-YSHGTFTSDYSKYLD[Aib]KRAQEFV[Aib]WLEDEKRNKPPPS-OH; N-terminus assumed)
6 | > 1000 | 1 | CC(C)C[C@H](NC(=O)[C@H](Cc1ccc(O)cc1)NC(=O)[C@H](CCCCN)NC(=O)[C@H](CO)NC(=O)[C@H](Cc1ccc(O)cc1)NC(=O)[C@H](CC(=O)O)NC(=O)[C@H](CO)NC(=O)[C@@H](NC(=O)[C@H](Cc1ccccc1)NC(=O)[C@@H](NC(=O)CNC(=O)[C@H](Cc1c[nH]cn1)NC(=O)[C@H](CO)NC(=O)[C@@H](N)Cc1ccc(O)cc1)[C@@H](C)O)[C@@H](C)O)C(=O)N[C@@H](CC(=O)O)C(=O)NC(C)(C)C(=O)N[C@@H](CCCCN)C(=O)N[C@@H](CCCNC(=N)N)C(=O)N[C@@H](C)C(=O)N[C@@H](CCC(N)=O)C(=O)N[C@@H](CCC(=O)O)C(=O)N[C@@H](Cc1ccccc1)C(=O)N[C@H](C(=O)NC(C)(C)C(=O)N[C@@H](Cc1c[nH]c2ccccc12)C(=O)N[C@@H](CC(C)C)C(=O)N[C@@H](CCC(=O)O)C(=O)N[C@@H](CC(=O)O)C(=O)N[C@@H](CCC(=O)O)C(=O)N1CCC[C@H]1C(=O)N[C@@H](CCCCN)C(=O)N[C@@H](CO)C(=O)N[C@@H](CCCCN)C(=O)N[C@@H](CCC(N)=O)C(=O)N1CCC[C@H]1C(=O)N1CCC[C@H]1C(=O)N1CCC[C@H]1C(=O)N[C@@H](CO)C(=O)O)C(C)C [Compound A57] (H-YSHGTFTSDYSKYLD[Aib]KRAQEFV[Aib]WLEDEPKSKQPPPS-OH; N-terminus assumed)
7 | > 1000 | 5.01 | CC(C)C[C@H](NC(=O)[C@H](Cc1ccc(O)cc1)NC(=O)[C@H](CCCCN)NC(=O)[C@H](CO)NC(=O)[C@H](Cc1ccc(O)cc1)NC(=O)[C@H](CC(=O)O)NC(=O)[C@H](CO)NC(=O)[C@@H](NC(=O)[C@H](Cc1ccccc1)NC(=O)[C@@H](NC(=O)CNC(=O)[C@H](Cc1c[nH]cn1)NC(=O)[C@@H](NC(=O)[C@@H](N)Cc1ccc(O)cc1)[C@@H](C)O)[C@@H](C)O)[C@@H](C)O)C(=O)N[C@@H](CC(=O)O)C(=O)NC(C)(C)C(=O)N[C@@H](CCCCN)C(=O)N[C@@H](CCCNC(=N)N)C(=O)N[C@@H](C)C(=O)N[C@@H](CCC(N)=O)C(=O)N[C@@H](CCC(=O)O)C(=O)N[C@@H](Cc1ccccc1)C(=O)N[C@H](C(=O)NC(C)(C)C(=O)N[C@@H](Cc1c[nH]c2ccccc12)C(=O)N[C@@H](CC(C)C)C(=O)N[C@@H](CCC(=O)O)C(=O)N[C@@H](CC(=O)O)C(=O)N[C@@H](CCC(=O)O)C(=O)N1CCC[C@H]1C(=O)N[C@@H](CO)C(=O)N[C@@H](CO)C(=O)NCC(=O)N[C@@H](CCCCN)C(=O)N1CCC[C@H]1C(=O)N1CCC[C@H]1C(=O)N1CCC[C@H]1C(=O)N[C@@H](CO)C(=O)O)C(C)C [Compound A60] (H-YTHGTFTSDYSKYLD[Aib]KRAQEFV[Aib]WLEDEPSSGKPPPS-OH; N-terminus assumed)

Reference: US20240239861A1, “GLUCAGON-RECEPTOR SELECTIVE POLYPEPTIDES AND METHODS OF USE THEREOF” (i2O Therapeutics, Inc., priority 2016, published 2024)
